How the values were obtained:
POLCO = experiment: Post-emergence herbicidal effect, greenhouse pot test; format: in vivo, Fallopia convolvulus
Text: (§1) • ALOMY: Alopecurus myosuroides SETVI: Setaria viridis • AVEFA: Avena fatua POLCO: Fallopia convolvulus • AMARE: Amaranthus retroflexus ECHCG: Echinochloa crus-galli • LOLRJ: Lolium rigidum STEME: Stellaria media • VERPE: Veronica persica MATIN: Tripleurospermum inodorum • DIGSA: Digitaria sanguinalis ABUTH: Abutylon threophrasti • TRZAS: Triticum aestivum VIOTR: Viola tricolor • BRSNW: Brassica napus ZEAMX: Zea mays • PHBPU: Ipomoea purpurea GLXMA: Glycine max • ORYSA: Oryza sativa HORMU: Hordeum murinum
(§2) Seeds of monocotyledonous and dicotyledonous weeds and crop plants are placed in sandy loam in plastic or organic planting pots, covered with soil and cultivated in a greenhouse under controlled growth conditions. 2 to 3 weeks after sowing, the trial plants are treated at the one-leaf stage. The compounds of the invention, formulated in the form of wettable powders (WP) or as emulsion concentrates (EC), are then sprayed onto the green parts of the plants as aqueous suspension or emulsion with addition of 0.5% additive at a water application rate of 600 l/ha (converted). After the test plants have been kept in the greenhouse under optimum growth conditions for about 3 weeks, the activity of the preparations is rated visually in comparison to untreated controls. For example, 100% activity=the plants have died, 0% activity=like control plants.
(§3) Tables 20a to 38c below show the effects/crop compatibilities of selected compounds of the general formula (I) on various harmful plants at an application rate corresponding to 20 to 320 g/ha, which were obtained by the trial procedure specified above.

AVEFA = experiment: as above; format: in vivo, Avena fatua; settings: visual rating about 3 weeks after treatment
Text: as §1, §2, §3

ALOMY = experiment: as above; format: in vivo, Alopecurus myosuroides; settings: 320 g/ha, visual rating about 3 weeks after treatment
Text: as §1, §2, §3

PHBPU = experiment: as above; format: in vivo, Ipomoea purpurea
Text: as §1, §2, §3

DIGSA = experiment: as above; format: in vivo, Digitaria sanguinalis; settings: visual rating about 3 weeks after treatment
Text: as §1, §2, §3

VIOTR = experiment: as above; format: in vivo, Viola tricolor
Text: as §1, §2, §3

ABUTH = experiment: as above; format: in vivo, Abutilon theophrasti; settings: visual rating about 3 weeks after treatment
Text: as §1, §2, §3

ECHCG = experiment: as above; format: in vivo, Echinochloa crus-galli
Text: as §1, §2, §3

SETVI = experiment: as above; format: in vivo, Setaria viridis
Text: as §1, §2, §3

MATIN = experiment: as above; format: in vivo, Tripleurospermum inodorum
Text: as §1, §2, §3

KCHSC = experiment: as above; format: in vivo
Experimental: as §2, with “plants. Tables 20a to 38c below show the effects/crop compatibilities of selected compounds of the general formula (I) on various harmful plants at an application rate corresponding to 20 to 320 g/ha, which were obtained by the trial procedure specified above.” for “plants.”

VERPE = experiment: as above; format: in vivo, Veronica persica
Text: as §1, §2, §3

ZEAMX = experiment: Post-emergence herbicidal effect and crop plant compatibility, greenhouse pot test; format: in vivo, Zea mays; settings: 20 g/ha, one-leaf stage, rated visually after about 3 weeks vs untreated controls
Text: as §1, §2, §3

`CCOC(Oc1nn(-c2ccccc2F)c(-c2ccc(F)nc2)c1Br)C(=O)OCCC(=O)OC` (single isomer, unassigned) [Example I-63, Methyl 3-{[(2R*)-2-{[4-bromo-1-(2-fluorophenyl)-5-(6-fluoropyridin-3-yl)-1H-pyrazol-3-yl]oxy}-2-ethoxyethanoyl]oxy}propanoate] gave a pest or weed control at 80 g/ha (POLCO; Fallopia convolvulus, 504 h, 80 g/ha, read-out: Post-emergence effect against POLCO in %) of 80%, a pest or weed control at 320 g/ha (POLCO; Fallopia convolvulus, 504 h, 320 g/ha, read-out: Post-emergence effect against POLCO in %) of 90% and a pest or weed control at 80 g/ha (AVEFA; Avena fatua, 504 h, 80 g/ha, read-out: Post-emergence effect against AVEFA) of 80%. It also gave a pest or weed control at 320 g/ha (AVEFA; Avena fatua, 504 h, 320 g/ha, read-out: Post-emergence effect against AVEFA) of 90%, a pest or weed control at 320 g/ha (ALOMY; Alopecurus myosuroides, 504 h, read-out: Post-emergence effect against ALOMY) of 90% and a pest or weed control at 20 g/ha (PHBPU; Ipomoea purpurea, 504 h, 20 g/ha, read-out: Post-emergence effect against PHBPU in %) of 80%. The pest or weed control at 80 g/ha (PHBPU; Ipomoea purpurea, 504 h, 80 g/ha, read-out: Post-emergence effect against PHBPU in %) was 90%, the pest or weed control at 320 g/ha (PHBPU; Ipomoea purpurea, 504 h, 320 g/ha, read-out: Post-emergence effect against PHBPU in %) was 90% and the pest or weed control at 80 g/ha (DIGSA; Digitaria sanguinalis, 504 h, 80 g/ha, read-out: Post-emergence effect against DIGSA) was 90%. For the same molecule, the pest or weed control at 320 g/ha (DIGSA; Digitaria sanguinalis, 504 h, 320 g/ha, read-out: Post-emergence effect against DIGSA) was 90%, the pest or weed control at 80 g/ha (VIOTR; Viola tricolor, 504 h, 80 g/ha, read-out: Post-emergence effect against VIOTR in %) was 80% and the pest or weed control at 320 g/ha (VIOTR; Viola tricolor, 504 h, 320 g/ha, read-out: Post-emergence effect against VIOTR in %) was 90%. The pest or weed control at 80 g/ha (ABUTH; Abutilon theophrasti, 504 h, 80 g/ha, read-out: Post-emergence effect against ABUTH) was 90%, the pest or weed control at 320 g/ha (ABUTH; Abutilon theophrasti, 504 h, 320 g/ha, read-out: Post-emergence effect against ABUTH) was 90% and the pest or weed control at 20 g/ha (ECHCG; Echinochloa crus-galli, 504 h, 20 g/ha, visual rating about 3 weeks after treatment, read-out: Post-emergence effect against ECHCG) was 90%. It also gave a pest or weed control at 80 g/ha (ECHCG; Echinochloa crus-galli, 504 h, 80 g/ha, read-out: Post-emergence effect against ECHCG in %) of 90%, a pest or weed control at 320 g/ha (ECHCG; Echinochloa crus-galli, 504 h, 320 g/ha, read-out: Post-emergence effect against ECHCG in %) of 90% and a pest or weed control at 80 g/ha (SETVI; Setaria viridis, 504 h, 80 g/ha, read-out: Post-emergence effect against SETVI in %) of 90%. The pest or weed control at 320 g/ha (SETVI; Setaria viridis, 504 h, 320 g/ha, read-out: Post-emergence effect against SETVI in %) was 90%, the pest or weed control at 80 g/ha (MATIN; Tripleurospermum inodorum, 504 h, 80 g/ha, read-out: Post-emergence effect against MATIN in %) was 80% and the pest or weed control at 320 g/ha (MATIN; Tripleurospermum inodorum, 504 h, 320 g/ha, read-out: Post-emergence effect against MATIN in %) was 80%. It also gave a pest or weed control at 320 g/ha (KCHSC; 504 h, 320 g/ha, read-out: Post-emergence effect against KCHSC in %) of 90%, a pest or weed control at 80 g/ha (VERPE; Veronica persica, 504 h, 80 g/ha, read-out: Post-emergence effect against VERPE in %) of 80% and a pest or weed control at 320 g/ha (VERPE; Veronica persica, 504 h, 320 g/ha, read-out: Post-emergence effect against VERPE in %) of 80%.
With `COC(=O)CCOC(=O)C(OC)Oc1nn(-c2ccccc2F)c(-c2ccc(F)nc2)c1C1CC1` (stereo not drawn) [Example I-61] the “Post-emergence effect against POLCO in %” value (POLCO; 80 g/ha) was 80%, the “Post-emergence effect against POLCO in %” value (POLCO; 320 g/ha) was 80% and the “Post-emergence effect against AVEFA” value (AVEFA; 80 g/ha) was 80%. The “Post-emergence effect against AVEFA” value (AVEFA; 320 g/ha) was 90%, the “Post-emergence effect against ALOMY” value (ALOMY) was 90% and the “Post-emergence effect against PHBPU in %” value (PHBPU; 80 g/ha) was 90%. The “Post-emergence effect against PHBPU in %” value (PHBPU; 320 g/ha) was 90%, the “Post-emergence effect against DIGSA” value (DIGSA; 80 g/ha) was 80% and the “Post-emergence effect against DIGSA” value (DIGSA; 320 g/ha) was 90%. The “Post-emergence effect against VIOTR in %” value (VIOTR; 20 g/ha) was 80%, the “Post-emergence effect against VIOTR in %” value (VIOTR; 80 g/ha) was 90% and the “Post-emergence effect against VIOTR in %” value (VIOTR; 320 g/ha) was 90%. The “Post-emergence effect against ABUTH” value (ABUTH; 80 g/ha) was 80%, the “Post-emergence effect against ABUTH” value (ABUTH; 320 g/ha) was 80% and the “Post-emergence effect against ECHCG in %” value (ECHCG; 80 g/ha) was 90%. The “Post-emergence effect against ECHCG in %” value (ECHCG; 320 g/ha) was 90%, the “Post-emergence effect against SETVI in %” value (SETVI; 80 g/ha) was 90% and the “Post-emergence effect against SETVI in %” value (SETVI; 320 g/ha) was 90%. For the same molecule, the “Post-emergence effect against MATIN in %” value (MATIN; 80 g/ha) was 80%, the “Post-emergence effect against MATIN in %” value (MATIN; 320 g/ha) was 80% and the “Post-emergence effect against KCHSC in %” value (KCHSC; 80 g/ha) was 80%. For the same molecule, the “Post-emergence effect against KCHSC in %” value (KCHSC; 320 g/ha) was 90%, the “Post-emergence effect against VERPE in %” value (VERPE; 80 g/ha) was 80% and the “Post-emergence effect against VERPE in %” value (VERPE; 320 g/ha) was 80%. For the same molecule, the “Post-emergence effect at 20 g/ha against ZEAMX in %” value (ZEAMX) was 0%.
With `COC(=O)CCOC(=O)C(OC)Oc1nn(-c2ccccc2F)c(-c2ccc(F)nc2)c1C(F)(F)F` (stereo not drawn) [Example I-62] the “Post-emergence effect against POLCO in %” value (POLCO; 80 g/ha) was 80%, the “Post-emergence effect against POLCO in %” value (POLCO; 320 g/ha) was 80% and the “Post-emergence effect against AVEFA” value (AVEFA; 80 g/ha) was 90%. For the same molecule, the “Post-emergence effect against AVEFA” value (AVEFA; 320 g/ha) was 90%, the “Post-emergence effect against ALOMY” value (ALOMY) was 90% and the “Post-emergence effect against PHBPU in %” value (PHBPU; 20 g/ha) was 90%. For the same molecule, the “Post-emergence effect against PHBPU in %” value (PHBPU; 80 g/ha) was 90%, the “Post-emergence effect against PHBPU in %” value (PHBPU; 320 g/ha) was 90% and the “Post-emergence effect against DIGSA” value (DIGSA; 80 g/ha) was 90%. For the same molecule, the “Post-emergence effect against DIGSA” value (DIGSA; 320 g/ha) was 90%, the “Post-emergence effect against VIOTR in %” value (VIOTR; 80 g/ha) was 90% and the “Post-emergence effect against VIOTR in %” value (VIOTR; 320 g/ha) was 90%. For the same molecule, the “Post-emergence effect against ABUTH” value (ABUTH; 80 g/ha) was 80%, the “Post-emergence effect against ABUTH” value (ABUTH; 320 g/ha) was 90% and the “Post-emergence effect against ECHCG in %” value (ECHCG; 80 g/ha) was 90%. The “Post-emergence effect against ECHCG in %” value (ECHCG; 320 g/ha) was 90%, the “Post-emergence effect against SETVI in %” value (SETVI; 80 g/ha) was 90% and the “Post-emergence effect against SETVI in %” value (SETVI; 320 g/ha) was 90%. For the same molecule, the “Post-emergence effect against MATIN in %” value (MATIN; 80 g/ha) was 80%, the “Post-emergence effect against MATIN in %” value (MATIN; 320 g/ha) was 80% and the “Post-emergence effect against KCHSC in %” value (KCHSC; 20 g/ha) was 80%. For the same molecule, the “Post-emergence effect against KCHSC in %” value (KCHSC; 80 g/ha) was 90%, the “Post-emergence effect against KCHSC in %” value (KCHSC; 320 g/ha) was 90% and the “Post-emergence effect against VERPE in %” value (VERPE; 80 g/ha) was 80%. For the same molecule, the “Post-emergence effect against VERPE in %” value (VERPE; 320 g/ha) was 80% and the “Post-emergence effect at 20 g/ha against ZEAMX in %” value (ZEAMX) was 0%.
